Source: publication PMC12692036, “Multi-Target Screening of Anti-Diabetic and Antioxidant Potential Bioactive Constituents from Dandelion” (Foods, 2025)

Legend:
[1] = DPPH radical scavenging capacity; details: mean ± SD, n = 3
Experimental: This method had been slightly modified according to the literature. Firstly, 10 μL of sample test solution and 190 μL of 0.1 mmol·L^−1 DPPH working solution were added to a 96-well microplate, shaken well, and reacted in the dark for 30 min. The absorbance at 517 nm was measured by ReadMax1200 microplate reader. The positive control was Trolox and Vc, and the blank control was anhydrous ethanol, with each experiment conducted in triplicate. The standard curve was plotted to obtain the linear regression equation. […] The TEAC values were calculated from the standard curve of Trolox and expressed as millimoles of Trolox equivalents per gram of sample (mmol TE/g).

α-glucosidase [2] = experiment: Affinity ultrafiltration MTAUF-UPLC-MS/MS of DE with α-glucosidase; format: binding, Saccharomyces cerevisiae; details: peak area with active / inactivated enzyme; DE 5.0 mg·mL^−1
Experimental: (§1) Based on hypoglycemic inhibitory activities, potential inhibitors in the DE extract were screened using the MTAUF-UPLC-MS/MS method, as previously described. Firstly, α-amylase or α-glucosidase enzymes were inactivated by heating in boiling water for 20 min. Secondly, 100 µL of DE sample (5.0 mg·mL^−1 in PBS, pH = 6.8), 20 µL of either 2 U·mL^−1 active or inactivated enzyme, and 190 µL PBS were mixed, shaken well, and incubated at 37 °C for 60 min. […] This step was repeated 3 times. […] This step was also repeated 3 times. The resulting solution was dried and reconstituted in 50 µL methanol for further UPLC-QTOF-MS/MS analysis.

α-amylase [3] = biological target: T1, α-amylase (Sus scrofa, UniProt P00690); experiment: Affinity ultrafiltration MTAUF-UPLC-MS/MS of DE with α-amylase; format: binding, porcine; details: peak area with active / inactivated enzyme; DE 5.0 mg·mL^−1
T1 construct: purchased Adamas-beta Reagents Co., Ltd. (Shanghai, China); host or cells: porcine pancreas
T1 sequence (P00690 16-511): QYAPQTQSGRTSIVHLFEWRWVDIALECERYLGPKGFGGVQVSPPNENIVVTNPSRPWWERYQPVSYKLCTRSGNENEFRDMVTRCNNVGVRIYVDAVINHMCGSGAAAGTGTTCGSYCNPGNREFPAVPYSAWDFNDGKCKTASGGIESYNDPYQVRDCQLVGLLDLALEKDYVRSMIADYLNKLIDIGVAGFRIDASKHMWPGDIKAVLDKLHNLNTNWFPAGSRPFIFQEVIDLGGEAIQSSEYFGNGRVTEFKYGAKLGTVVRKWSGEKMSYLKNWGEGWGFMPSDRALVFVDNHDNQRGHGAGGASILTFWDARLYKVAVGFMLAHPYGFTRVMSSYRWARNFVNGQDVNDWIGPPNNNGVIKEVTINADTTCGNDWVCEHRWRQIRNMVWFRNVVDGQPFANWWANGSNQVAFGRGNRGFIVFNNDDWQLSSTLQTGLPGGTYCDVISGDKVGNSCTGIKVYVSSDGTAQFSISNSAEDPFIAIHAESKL
Experimental: as §1

[4] = ABTS radical scavenging capacity; details: mean ± SD, n = 3
Experimental: This method had been slightly modified according to the literature. Firstly, 1.32 mg·mL^−1 potassium persulfate and 3.84 mg·mL^−1 ABTS^+• were mixed in a volume ratio of 1:1 to obtain the ABTS^+• mother liquor. The ABTS^+• mother liquor was stored in a dark environment for 12–16 h, diluted with ethanol, and adjusted to an absorbance range of 0.695 ± 0.705 at 734 nm to obtain an ABTS^+• working solution. Secondly, 100 μL of sample test solution and 190 μL ABTS^+• working solution were added to a 96-well microplate, shaken well, and reacted in the dark for 30 min. Finally, the absorbance at 734 nm was measured by ReadMax1200 microplate reader. The positive control was Trolox and Vc, and the blank control was anhydrous ethanol, with each experiment conducted in triplicate. The ABTS radical scavenging capacities were also expressed as IC50 and TEAC values, calculating according to Section 2.6.1. The standard curve was plotted to obtain the linear regression equation. The ABTS RCR was calculated as follows: (3) ABTS RCR=AABTS−ASample/AABTS×100% where AABTS and ASample were the absorbance values of blank control and sample, respectively.

α-glucosidase [5] = experiment: α-Glucosidase inhibitory activity (pNPG); format: biochemical, Saccharomyces cerevisiae; details: mean ± SD, n = 3
Experimental: α-Glucosidase inhibitory activity was examined based on a modified method described previously. […] Then, 40 μL of 5 mmol·L^−1 pNPG was added, and the reaction was for an additional 15 min. Finally, 80 μL of 1 mol·L^−1 sodium carbonate was added to terminate the reaction, and measured its absorbance value at a wavelength of 405 nm by ReadMax1200 microplate reader (Shanpu, Shanghai, China). Each experiment was conducted in triplicate. […] The IR was calculated according to Equation (1) in Section 2.5.1.

α-amylase [6] = biological target: T1, α-amylase; experiment: α-Amylase inhibitory activity (DNS method); format: biochemical, porcine; details: mean ± SD, n = 3
Experimental: α-Amylase inhibitory activity was examined based on a modified method described previously. Firstly, 200 µL of sample test solution and 100 µL of 1 U·mL^−1 α-amylase solution were transferred into 5 mL centrifuge tube, and incubated in a 37 °C constant temperature water bath for 10 min. Secondly, 200 µL of 1% starch solution was added and incubated in a 37 °C constant temperature water bath for 5 min. Thirdly, 500 µL of DNS reagent was prepared, added, immersed and reacted in boiling water for 5 min [7]. Subsequently, the reaction solution was removed from boiling water and cooled for 10 min. Finally, 200 µL of the reaction solution was transferred into a 96-well microplate, and measured its absorbance value at a wavelength of 540 nm by ReadMax1200 microplate reader. Each experiment was conducted in triplicate.

[7] = FRAP iron ion reduction capacity; details: mean ± SD, n = 3
Experimental: This method had been slightly modified according to the literature. Firstly, 40 mmol·L^−1 HCl, 100 mmol·L^−1 FeSO4, 20 mmol·L^−1 FeCl3, 0.3 mol·L^−1 acetic acid sodium acetate buffer, and 10 mmol·L^−1 TPTZ were carefully prepared, respectively. Secondly, the TPTZ working solution was prepared by mixing 20 mmol·L^−1 FeCl3, 0.3 mol·L^−1 acetic acid sodium acetate buffer, and 10 mmol·L^−1 TPTZ in a volume ratio of 1:10:1. Thirdly, 100 μL of sample test solution and 190 μL TPTZ working solution were added to a 96-well microplate, shaken well, and reacted at room temperature for 10 min. Finally, the absorbance at 593 nm was measured by ReadMax1200 microplate reader. The positive control was Trolox and Vc, and the blank control was anhydrous ethanol, with each experiment conducted in triplicate. The FRAP assay results were quantified by extrapolating the absorbance values to the ferrous sulfate standard curve, with the antioxidant capacity expressed as millimolar ferrous ion equivalents per gram of dry sample weight (mmol Fe^2+·g^−1). The FRAP iron ion reduction capacities were also expressed as TEAC values, calculated according to Section 2.6.1.

In the case of `O=c1cc(-c2ccc(O)c(O)c2)oc2cc(O)cc(O)c12` [Compound 7, luteolin], the “DPPH radical scavenging capacity IC50” value [1] is reported as 1.96 ± 0.05 µg/mL, the “relative binding affinity (RBA) toward α-glucosidase” value (α-glucosidase [2]) is reported as “less than 1” and the “relative binding affinity (RBA) toward α-amylase” value (α-amylase [3]) is reported as 1.83 ± 0.07. For the same molecule, the “ABTS radical scavenging capacity IC50” value [4] was 2.47 ± 0.05 µg/mL.

With `O=c1cc(-c2ccc(O)cc2)oc2cc(O)cc(O)c12` [Compound 14, apigenin] the “IC50 of α-glucosidase inhibitory activity” value (α-glucosidase [5]) was 35.99 ± 0.42 µg/mL, the “relative binding affinity (RBA) toward α-glucosidase” value (α-glucosidase [2]) was 1.54 ± 0.03 and the “relative binding affinity (RBA) toward α-amylase” value (α-amylase [3]) was 1.48 ± 0.03.

In the case of `COc1cc(-c2cc(=O)c3c(O)cc(O)cc3o2)cc(OC)c1O[C@H](CO)[C@@H](O)c1ccc(O)cc1` [Compound 17, calquiquelignan D], the “relative binding affinity (RBA) toward α-amylase” value (α-amylase [3]) is reported as “less than 1”.

With `COc1cc(-c2cc(=O)c3c(O)cc(O)cc3o2)cc(OC)c1O` [Compound 18, tricin] the “relative binding affinity (RBA) toward α-amylase” value (α-amylase [3]) was “less than 1”.

In the case of `O=c1c(O)c(-c2ccc(O)cc2)oc2cc(O)cc(O)c12` [Compound 15, kaempferol], the “DPPH radical scavenging capacity IC50” value [1] is reported as 5.18 ± 0.02 µg/mL, the IC50 (α-amylase [6]) is reported as 99.5 µM and the “iron ion reducing capacity, equivalent concentration of ferrous ions (FRAP)” value (from here on “iron ion reducing capacity”) [7] is reported as 57.56 ± 1.33 mmol Fe^2+·g^−1. For the same molecule, the “ABTS radical scavenging capacity IC50” value [4] was 3.93 ± 0.04 µg/mL.

In the case of `O=c1cc(-c2ccccc2)oc2cc(O)cc(O)c12` [Compound 24, chrysin], the “relative binding affinity (RBA) toward α-glucosidase” value (α-glucosidase [2]) is reported as 1.64 ± 0.05 and the “relative binding affinity (RBA) toward α-amylase” value (α-amylase [3]) is reported as 1.66 ± 0.08.

In the case of `O=C(/C=C/c1ccc(O)c(O)c1)O[C@H]1[C@H](O)C[C@](O)(C(=O)O)C[C@H]1OC(=O)/C=C/c1ccc(O)c(O)c1` [Compound 2, isochlorogenic acid C], the “DPPH radical scavenging capacity IC50” value [1] is reported as 5.55 ± 0.02 µg/mL, the “IC50 of α-amylase inhibitory activity” value (α-amylase [6]) is reported as 254.00 ± 0.78 µg/mL and the “IC50 of α-glucosidase inhibitory activity” value (α-glucosidase [5]) is reported as 84.84 ± 4.31 µg/mL. For the same molecule, the “relative binding affinity (RBA) toward α-glucosidase” value (α-glucosidase [2]) was “less than 1”, the “iron ion reducing capacity” value [7] was 107.35 ± 3.42 mmol Fe^2+·g^−1 and the “relative binding affinity (RBA) toward α-amylase” value (α-amylase [3]) was 1.71 ± 0.07. The “ABTS radical scavenging capacity IC50” value [4] was 3.01 ± 0.03 µg/mL.

For `COc1cc(/C=C/C(=O)O)ccc1O` [Compound 5, ferulic acid], the “DPPH radical scavenging capacity IC50” value [1] was 6.11 ± 0.06 µg/mL, the “relative binding affinity (RBA) toward α-glucosidase” value (α-glucosidase [2]) was 1.35 ± 0.05 and the “relative binding affinity (RBA) toward α-amylase” value (α-amylase [3]) was 1.08 ± 0.05. The “ABTS radical scavenging capacity IC50” value [4] was 1.20 ± 0.00 µg/mL.

With `C=C1CC[C@]2(C)CC[C@]3(C)[C@H](CC[C@@H]4[C@@]5(C)CC[C@H](O)C(C)(C)[C@@H]5CC[C@]43C)[C@H]2[C@@H]1C` [Compound 48, taraxasterol] the “relative binding affinity (RBA) toward α-glucosidase” value (α-glucosidase [2]) was 1.46 ± 0.09 and the “relative binding affinity (RBA) toward α-amylase” value (α-amylase [3]) was “less than 1”.

With `COc1cc(O)c2c(=O)cc(-c3ccc(O)cc3)oc2c1` [Compound 27, genkwanin] the “relative binding affinity (RBA) toward α-glucosidase” value (α-glucosidase [2]) was 2.09 ± 0.06 and the “relative binding affinity (RBA) toward α-amylase” value (α-amylase [3]) was 2.13 ± 0.07.

In the case of `O=C1C[C@@H](c2ccccc2)Oc2cc(O)cc(O)c21` [Compound 25, pinocembrin], the “relative binding affinity (RBA) toward α-glucosidase” value (α-glucosidase [2]) is reported as 1.11 ± 0.03 and the “relative binding affinity (RBA) toward α-amylase” value (α-amylase [3]) is reported as 1.53 ± 0.06.

In the case of `O=c1c(O)c(-c2ccc(O)c(O)c2)oc2cc(O)cc(O)c12` [Compound 8, quercetin], the “DPPH radical scavenging capacity IC50” value [1] is reported as 4.23 ± 0.04 µg/mL, the “iron ion reducing capacity” value [7] is reported as 56.40 ± 1.81 mmol Fe^2+·g^−1 and the “ABTS radical scavenging capacity IC50” value [4] is reported as 2.12 ± 0.02 µg/mL.

In the case of `O=c1c(-c2ccc(O)cc2)coc2cc(O)cc(O)c12` [Compound 13, genistein], the “relative binding affinity (RBA) toward α-glucosidase” value (α-glucosidase [2]) is reported as 1.60 ± 0.03, the “relative binding affinity (RBA) toward α-amylase” value (α-amylase [3]) is reported as 1.15 ± 0.09 and the “ABTS radical scavenging capacity IC50” value [4] is reported as 18.26 ± 0.52 µg/mL.

For `COc1ccc(C=CC(=O)O)cc1OC` [Compound 6, 3,4-dimethoxy cinnamic acid], the “relative binding affinity (RBA) toward α-glucosidase” value (α-glucosidase [2]) was “less than 1” and the “relative binding affinity (RBA) toward α-amylase” value (α-amylase [3]) was 1.05 ± 0.02.

With `O=C(O)c1ccc(O)cc1` [Compound 3, 4-hydroxybenzoic acid] the “relative binding affinity (RBA) toward α-glucosidase” value (α-glucosidase [2]) was 2.47 ± 0.07 and the “relative binding affinity (RBA) toward α-amylase” value (α-amylase [3]) was “less than 1”.
